Among the data in ChEMBL document CHEMBL2073956, “ATP-dependent transport of bile salts by rat multidrug resistance-associated protein 3 (Mrp3)” (J Biol Chem, 2000) are activity, Km and Activity values, retold here.

Counter-ions that a name gives are not always drawn.

Common to all, as to type: functional, cell membranes, Membrane vesicle
Series [1] addresses T1, ATP-binding cassette sub-family C member 3 (MRP3) (Rattus norvegicus, UniProt O88563). In words: TP_TRANSPORTER: inhibition of E217betaG uptake (E217betaG: 0.055 uM, TLC-S: 20 uM) in membrane vesicles from LLC-PK1 cells. The conditions noted are these: pig, probe E217betaG, read-out: Activity. Also on record: scale not given: the % may be the effect or the level left.
For series [2], the target named is T2, Mrp3 (ATP-binding cassette sub-family C member 3) (Rattus norvegicus, UniProt O88563). The experiment in a line: (§1) TP_TRANSPORTER: uptake in membrane vesicles isolated from Mrp3-expressing LLC-PK1 cells. The conditions noted are these: pig, membrane vesicles from Mrp3-expressing LLC-PK1 cells.
For series [3], the target named is T2, Mrp3 (ATP-binding cassette sub-family C member 3). The experiment in a line: TP_TRANSPORTER: inhibition of Taurocholate uptake (Taurochorate: 1.2 uM, TLCAS: 20 uM) in membrane vesicles isolated from Mrp3-expressing LLC-PK1 cells. Also on record: scale not given: the % may be the effect or the level left. The conditions noted are these: pig, probe taurocholate, read-out: Activity.

For series [4] the target is unchanged. The experiment in a line: TP_TRANSPORTER: inhibition of E217betaG uptake (E217betaG: 0.055 uM, GC: 200 uM) in membrane vesicles isolated from Mrp3-expressing LLC-PK1 cells. Also on record: scale not given: the % may be the effect or the level left. The conditions noted are these: pig, probe E217betaG, read-out: Activity.
The target of series [5] is T3, ATP-binding cassette sub-family C member 3 (Rattus norvegicus, UniProt O88563). The series is described as §1. The note with it: pig, llc-pk1.
Series [6] concerns the target T3, ATP-binding cassette sub-family C member 3. In words: TP_TRANSPORTER: inhibition of Taurocholate uptake (Taurochorate: 1.2 uM, GC: 50 uM) in membrane vesicles isolated from Mrp3-expressing LLC-PK1 cells. The conditions noted are these: pig, llc-pk1, 50 µM. The arrangement: scale not given: the % may be the effect or the level left.
Series [7] has as its target T1, ATP-binding cassette sub-family C member 3 (MRP3). The experiment in a line: TP_TRANSPORTER: inhibition of Taurocholate uptake (Taurochorate: 1.2 uM, CA: 500 uM) in membrane vesicles from LLC-PK1 cells. Also on record: scale not given: the % may be the effect or the level left. The conditions noted are these: pig, probe taurocholate, read-out: Activity.
For series [8], the target named is T3, ATP-binding cassette sub-family C member 3. In words: (§2) TP_TRANSPORTER: uptake in membrane vesicles from LLC-PK1 cells. The conditions noted are these: pig.
Series [9] has as its target T1, ATP-binding cassette sub-family C member 3 (MRP3). The experiment in a line: TP_TRANSPORTER: inhibition of E217betaG uptake (E217betaG: 0.055 uM, GC: 200 uM) in membrane vesicles from LLC-PK1 cells. The conditions noted are these: pig, probe E217betaG, read-out: Activity. The arrangement: scale not given: the % may be the effect or the level left.
Series [10] deals with T2, Mrp3 (ATP-binding cassette sub-family C member 3). In words: TP_TRANSPORTER: inhibition of Taurocholate uptake (TCDC-S: 50 uM) in membrane vesicles isolated from Mrp3-expressing LLC-PK1 cells. The arrangement: scale not given: the % may be the effect or the level left. The note with it: pig, probe taurocholate, read-out: Activity.
Series [11] has as its target T1, ATP-binding cassette sub-family C member 3 (MRP3). In words: TP_TRANSPORTER: inhibition of E217betaG uptake (E217betaG: 0.055 uM, TCDC-S: 50 uM) in membrane vesicles from LLC-PK1 cells. Also on record: scale not given: the % may be the effect or the level left. The conditions noted are these: pig, probe E217betaG, read-out: Activity.
Series [12] concerns the target T3, ATP-binding cassette sub-family C member 3. The experiment in a line: TP_TRANSPORTER: inhibition of E217betaG uptake (E217betaG: 0.055 uM, TCDC-S: 50 uM) in membrane vesicles isolated from Mrp3-expressing LLC-PK1 cells. Also on record: scale not given: the % may be the effect or the level left. The conditions noted are these: pig, llc-pk1, 50 µM.
Series [13] concerns the target T1, ATP-binding cassette sub-family C member 3 (MRP3). In words: TP_TRANSPORTER: inhibition of Taurocholate uptake (Taurochorate: 1.2 uM, TCDC-S: 50 uM) in membrane vesicles from LLC-PK1 cells. Also on record: scale not given: the % may be the effect or the level left. The note with it: pig, probe taurocholate, read-out: Activity.
For series [14], the target named is T2, Mrp3 (ATP-binding cassette sub-family C member 3). The experiment in a line: TP_TRANSPORTER: inhibition of Taurocholate uptake (Taurochorate: 1.2 uM, E217betaG: 200 uM) in membrane vesicles isolated from Mrp3-expressing LLC-PK1 cells. The arrangement: scale not given: the % may be the effect or the level left. The conditions noted are these: pig, probe taurocholate, read-out: Activity.

Series [15] deals with T1, ATP-binding cassette sub-family C member 3 (MRP3). In words: TP_TRANSPORTER: inhibition of Taurocholate uptake (Taurochorate: 1.2 uM, E217betaG: 75 uM) in membrane vesicles from LLC-PK1 cells. Also on record: scale not given: the % may be the effect or the level left. The note with it: pig, probe taurocholate, read-out: Activity.
Substrate in series [16]: [H][C@]12CC[C@]3([H])[C@]([H])(CC[C@]4(C)C([C@H](C)CCC(=O)NCCS(=O)(=O)O)CC[C@@]34[H])[C@@]1(C)CC[C@@H](OS(=O)(=O)O)C2
Described as §2.

Take `C[C@H](CCC(=O)NCCS(=O)(=O)O)C1CC[C@H]2[C@@H]3CC[C@@H]4C[C@H](OS(=O)(=O)O)CC[C@]4(C)[C@H]3CC[C@]12C` (stereo partly drawn): the activity at 20 µM in series [1] stood at 15.5%; in series [3] it was 12.2%. In addition, the Michaelis constant (Km) in series [2] was 3.06 µM.

For the molecule `C[C@H](CCC(=O)NCC(=O)O)[C@H]1CC[C@H]2[C@@H]3[C@H](O)C[C@@H]4C[C@H](O)CC[C@]4(C)[C@H]3C[C@H](O)[C@]12C` [GLYCOCHOLIC ACID], the activity at 200 µM in [4] and in series [9] was 13.9% throughout. Further, the Activity result was “substrate [+]” in series [5], 16% in [6] and “substrate [+]” in [8]. Besides, the activity at 500 µM in series [7] turned out to be 0%.

Turning to `C[C@H](CCC(=O)NCCS(=O)(=O)O)C1CC[C@H]2[C@@H]3[C@H](O)C[C@@H]4C[C@H](OS(=O)(=O)O)CC[C@]4(C)[C@H]3CC[C@]12C` (stereo partly drawn) [TAUROCHENODEOXYCHOLATE SULFATE], the figures for the Activity entry in series [5], in series [12] and in [8] were “substrate [+]”, 26.2% and “substrate [+]”, respectively. Besides, the activity at 50 µM in series [10] came to 27.8%; in series [11], 26.2%; in [13], 27.8%.

As to `C[C@]12CC[C@@H]3c4ccc(O)cc4CC[C@H]3[C@@H]1CC[C@@H]2O[C@@H]1O[C@H](C(=O)O)[C@@H](O)[C@H](O)[C@H]1O` [ESTRADIOL 17B GLUCURONIDE], in series [14], the activity at 200 µM was determined as 78.4%. For the same molecule, in series [15], the activity at 75 µM was 78.4%.

B1: ATP-binding cassette sub-family C member 3 (Rattus norvegicus) (protein)
chain: MDRLCGSGELGSKFWDSNLTVYTNTPDLTPCFQNSLLAWVPCIYLWAALPCYLFYLRHHRLGYIVLSCLSRLKTALGVLLWCISWVDLFYSFHGLVHGSSPAPVFFITPLLVGITMLLATLLIQYERLRGVRSSGVLIIFWLLCVICAIIPFRSKILLALAEGKILDPFRFTTFYIYFALVLCAFILSCFQEKPPLFSPENLDTNPCPEASAGFFSRLSFWWFTKLAILGYRRPLEDSDLWSLSEEDCSHKVVQRLLEAWQKQQTQASGPQTAALEPKIAGEDEVLLKARPKTKKPSFLRALVRTFTSSLLMGACFKLIQDLSPSSTHSCSASSSGLFRPHGPYWWGFLLAGLMFVSSTMQTLILHQHYHCIFVMALRIRTAIIGVIYRKALTITNSVKREYTVGEMVNLMSVDAQRFMDVSPFINLLWSAPLQVILAIYFLWQILGPSALAGVAVIVLLIPLNGAVSMKMKTYQVQQMKFKDSRIKLMSEILNGIKVLKLYAWEPTFLEQVEGIRQGELQLLRKGAYLQAISTFIWVCTPFMVTLITLGVYVCVDKNNVLDAEKAFVSLSLFNILKIPLNLLPQLISGMTQTSVSLKRIQDFLNQDELDPQCVERKTISPGRAITIHNGTFSWSKDLPPTLHSINIQIPKGALVAVVGPVGCGKSSLVSALLGEMEKLEGAVSVKGSVAYVPQQAWIQNCTLQENVLFGQPMNPKRYQQALETCALLADLDVLPGGDQTEIGEKGINLSGGQRQRVSLARAVYSDANIFLLDDPLSAVDSHVAKHIFDQVIGPEGVLAGKTRVLVTHGISFLPQTDFIIVLADGQITEMGHYSELLQHDGSFANFLRNYAPDENQEANEGVLQHANEEVLLLEDTLSTHTDLTDTEPAIYEVRKQFMREMSSLSSEGEGQNRPVLKRYTSSLEKEVPATQTKETGALIKEEIAETGNVKLSVYWDYAKSVGLCTTLFICLLYAGQNAVAIGANVWLSAWTNDVEEHGQQNNTSVRLGVYATLGILQGLLVMLSAFTMVVGAIQAARLLHTALLHNQIRAPQSFFDTTPSGRILNRFSKDIYVIHEVLAPTILMLFNSFYTSISTIVVIVASTPLFCVVVLPLAVFYGFVQRFYVATSRQLKRLESVSRSPIFSHFSETVTGTSVIRAYGRVQDFKVLSDAKVDSNQKTTYPYIASNRWLGVHVEFVGNCVVLFSALFAVIGRNSLNPGLVGLSVSYALQVTLSLNWMIRTLSDLESNIIAVERVKEYSKTETEAPWVLESNRAPEGWPRSGVVEFRNYSVRYRPGLELVLKNLTLHVQGGEKVGIVGRTGAGKSSMTLCLFRILEAAEGEIFIDGLNVAHIGLHDLRSQLTIIPQDPILFSGTLRMNLDPFGRYSDEDIWRTLELSHLSAFVSSQPTGLDFQCSEGGDNLSVGQRQLVCLARALLRKSRVLVLDEATAAIDLETDDLIQGTIRTQFEDCTVLTIAHRLNTIMDYNRVLVLDKGVVAEFDSPVNLIAAGGIFYGMAKDAGLA
Consider B1, for which the Michaelis constant (Km) in series [16] is 3.06 µM.
